Several values for one entry are separate records, joined by “and”; a condition that tells them apart may be missing. Identical values can stand only once.
Key:
LbCas12a = LbCas12a in vitro cleavage assay; assay type: biochemical; settings: 100 μM
Experimental: In vitro cleavage experiments were performed using purified recombinant LbCas12a proteins similar to SpCas9 cleavage assays. LbCas12a proteins (50 nM), crRNA (50 nM), and different concentrations of the inhibitor compounds were mixed in NEBuffer 2 (New England Biolabs). After incubation at room temperature for 10 min, ScaI-linearized pUC19 DNA was added to a final concentration of 1.52 nM. The solution was vortex mixed and centrifuged, then incubated for 45 min in a water bath at 37 °C. The reaction was quenched with 0.5 μL proteinase K for 15 min at 56 °C. The samples were mixed with DNA loading buffers and resolved by 1.2% TAE agarose gel electrophoresis. Gel bands were visualized by Chemidoc XRS plus system (Bio-Rad, Hercules, CA, USA).

SpCas9–gRNA complex [1] = molecular target: T1, SpCas9–gRNA complex (Streptococcus pyogenes serotype M1, UniProt Q99ZW2); experiment: Competitive fluorescence polarization assay, SpCas9-gRNA; assay type: binding
T1 construct: His6 (N); TEV site (N); made in house; host or cells: E. coli BL21 Star (DE3)

dSpCas9–gRNA complex = experiment: Competitive fluorescence polarization assay, dSpCas9-gRNA; assay type: binding, Streptococcus pyogenes; settings: FITC-DNA 25 nM, compounds 50 μM, PAM-DNA 1.25 μM
SpCas9–gRNA complex [2] = molecular target: T1, SpCas9–gRNA complex; experiment: Microscale thermophoresis (MST), SpCas9-gRNA RNP; assay type: binding; settings: SpCas9-EGFP/gRNA RNP (1:1) 200 nM, 25 °C
Experimental: (§1) The MST method was carried out similar to the previous report. The binding ability of the compounds to SpCas9 in different states was tested by Monolith NT.115 (NanoTemper Technologies, Munich, Germany). The SpCas9-EGFP fusion protein or the SpCas9-EGFP/gRNA RNP complex (protein: gRNA = 1:1) was diluted with a binding buffer (50 mM Tris-HCl, pH 7.4, 150 mM NaCl, 0.05% Tween-20, and 10 mM MgCl2) to make a final concentration of 200 nM. The protein diluent was mixed with the compound diluent in equal volume. The mixture was kept at room temperature for 10 min. Then the sample was loaded into the NanoTemper standard capillaries. All experiments were carried out at 25 °C, 80% MST power, and 50% LED power. The data were analyzed with the NanoTemper MO affinity analysis software (NanoTemper Technologies, Munich, Germany). The raw data were then exported and plotted with Origin 2020b (OriginLab, Northampton, MA, USA).

[3] = test system: Flag-tagged SpCas9 protein expression; settings: western blot, GAPDH loading control, concentrations tested
Experimental: The reporter 293T cells were seeded into 96-well plates at a density of 10,000 cells per well and cultured overnight before the addition of DMSO alone or various compounds (in DMSO solution) at appropriate concentrations (0.125–100 μM) with or without 2 μg/mL doxycycline for an additional 72 h of incubation. The cells were then harvested for analysis with the CytoFLEX flow cytometer (Beckman Coulter, Brea, CA, USA) or analyzed by western blot with antibodies as indicated. […] The inhibiting efficiency in reporter 293T cells was calculated using the following equation: E’ = (P2 − P1)/(P0 − P1) × 100%, where E’ is the inhibiting efficiency in reporter 293T cells, and P0, P1, and P2 are the GFP positive cell ratio of the uninduced group, Dox and DMSO treated control group, and Dox and compound treated group, respectively.

FITC-DNA = settings: compared with DMSO, no SpCas9
Experimental: The fluorescence polarization experiment was as previously reported [33]. […] The DNA was labeled at the 3′ end with fluorescein isothiocyanate (FITC). The other one is complementary to the first 58 bases of the previous oligonucleotide. These two oligonucleotides were annealed to generate the target DNA substrate labeled with fluorescent molecules (FITC-DNA). Unlabeled DNA (PAM-DNA) was considered competitive positive controls. Experiments were performed on black 384-well plates (Corning, New York, NY, USA). 50 nM SpCas9-gRNA (1:1) and different concentrations of the compound were added to the reaction buffer (50 mM Tris-HCl, pH 8.0, 0.1 M NaCl, 10 mM MgCl2, and 1 mM DTT). PAM-DNA (1250 nM) was used as a positive control. The mixture was then incubated at room temperature for 30 min, and FITC-DNA was added to the final concentration of 25 nM in each well. Fluorescence polarization signals were measured using a multilabel reader (Victor X5, PerkinElmer, Waltham, MA, USA) within 10 min. These values were plotted using GraphPad Prism 6.0 software (San Diego, CA, USA).

SpCas9 [4] = molecular target: T2, SpCas9 (Streptococcus pyogenes serotype M1, UniProt Q99ZW2); experiment: On- and off-target editing at endogenous loci in iCas9 U2OS cells (deep sequencing); assay type: cell-based; design: expressed in transfected cells; settings: +Dox
Experimental: The iCas9-expressing U2OS cells were first through lentiviral infection. The cells were cultured with 1 μg/mL puromycin until all cells in the negative control group were dead. Monoclonal cells were then isolated and verified. Lentiviruses encoding appropriate gRNAs were used to infect the iCas9 U2OS cells, which were further selected with 10 μg/mL Blasticidin S HCL (Gibco, New York, NY, USA) until all cells in the control group were dead. The iCas9/gRNA cells were then plated in 12-well plates (Thermo Fisher Scientific) at ~40% confluence per well at 24 h before the doxycycline (2 μg/mL) addition. An individual inhibitor compound was also added at this point at the appropriate concentrations. DMSO alone served as the control. Cells cultured without doxycycline served as the SpCas9 cleavage control. After 24 h, cells were collected for genomic DNA extraction using the AxyPrep blood genomic DNA miniprep kit (Axygen, New York, NY, USA). Sequences surrounding the on- and off-target sites were amplified using barcoded primers (Supplementary Table S3) and the KOD PCR kit (Toyobo, Japan) to generate the sequencing libraries. Single-read sequencing of the pooled samples were performed on the 150 Hiseq 2000 (Illumina, San Diego, CA, USA). Each experiment was repeated twice. MATLAB was used to split the sequencing file and CRISPResso2 [38] was used to analyze the frequency of indels.

SpCas9 [5] = molecular target: T2, SpCas9; experiment: Microscale thermophoresis (MST), SpCas9; assay type: binding; design: His6 (N); TEV site (N); made in house; host or cells: E. coli BL21 Star (DE3); settings: SpCas9–EGFP fusion protein 200 nM, 25 °C
Experimental: as §1

SpCas9 [6] = molecular target: T2, SpCas9; experiment: Inhibition of SpCas9 nuclease activity in EGFP/iCas9/gRNA-EGFP reporter 293T cells (flow cytometry); assay type: cell-based; design: expressed in transfected cells; host or cells: H2AX-EGFP HEK293T cells, lentiviral transduction, doxycycline-induced
Excerpt: The H2AX-EGFP 293T cell line was first generated using the previously reported MMEJ-mediated CRIS-PITCh system. Briefly, we cloned two gRNAs (Supplementary Table S3) that respectively target H2AX gene and the PITCh vector into the px330 plasmid (Addgene, #42230). The PITCh vector contains a pair of 20-bp homologous sequences targeting the upstream and downstream regions of the H2AX gRNA cleavage site, and the SFB-EGFP expression cassette. The three plasmids were co-transfected into 293T cells at an equimolar ratio. GFP-positive cells were sorted by FACS and individually expanded to isolate single clones for genomic DNA extraction and PCR verification of successful knock-in (KI) of the SFB-EGFP cassette into 5′-end of first exon of the H2AX gene. The selected H2AX-EGFP 293T cell clone was subsequently infected with lentiviruses encoding tetracycline-inducible SpCas9 (iCas9). After drug selection, individual clones were again expanded and verified for inducible Cas9 expression. The selected clone was subsequently infected with lentivirus encoding a gRNA that targets EGFP. Puromycin-resistant clones ([…], Thermo Fisher Scientific) were then isolated after >7 days for further analysis.

T1 sequence (Q99ZW2 whole entry, one chain of several): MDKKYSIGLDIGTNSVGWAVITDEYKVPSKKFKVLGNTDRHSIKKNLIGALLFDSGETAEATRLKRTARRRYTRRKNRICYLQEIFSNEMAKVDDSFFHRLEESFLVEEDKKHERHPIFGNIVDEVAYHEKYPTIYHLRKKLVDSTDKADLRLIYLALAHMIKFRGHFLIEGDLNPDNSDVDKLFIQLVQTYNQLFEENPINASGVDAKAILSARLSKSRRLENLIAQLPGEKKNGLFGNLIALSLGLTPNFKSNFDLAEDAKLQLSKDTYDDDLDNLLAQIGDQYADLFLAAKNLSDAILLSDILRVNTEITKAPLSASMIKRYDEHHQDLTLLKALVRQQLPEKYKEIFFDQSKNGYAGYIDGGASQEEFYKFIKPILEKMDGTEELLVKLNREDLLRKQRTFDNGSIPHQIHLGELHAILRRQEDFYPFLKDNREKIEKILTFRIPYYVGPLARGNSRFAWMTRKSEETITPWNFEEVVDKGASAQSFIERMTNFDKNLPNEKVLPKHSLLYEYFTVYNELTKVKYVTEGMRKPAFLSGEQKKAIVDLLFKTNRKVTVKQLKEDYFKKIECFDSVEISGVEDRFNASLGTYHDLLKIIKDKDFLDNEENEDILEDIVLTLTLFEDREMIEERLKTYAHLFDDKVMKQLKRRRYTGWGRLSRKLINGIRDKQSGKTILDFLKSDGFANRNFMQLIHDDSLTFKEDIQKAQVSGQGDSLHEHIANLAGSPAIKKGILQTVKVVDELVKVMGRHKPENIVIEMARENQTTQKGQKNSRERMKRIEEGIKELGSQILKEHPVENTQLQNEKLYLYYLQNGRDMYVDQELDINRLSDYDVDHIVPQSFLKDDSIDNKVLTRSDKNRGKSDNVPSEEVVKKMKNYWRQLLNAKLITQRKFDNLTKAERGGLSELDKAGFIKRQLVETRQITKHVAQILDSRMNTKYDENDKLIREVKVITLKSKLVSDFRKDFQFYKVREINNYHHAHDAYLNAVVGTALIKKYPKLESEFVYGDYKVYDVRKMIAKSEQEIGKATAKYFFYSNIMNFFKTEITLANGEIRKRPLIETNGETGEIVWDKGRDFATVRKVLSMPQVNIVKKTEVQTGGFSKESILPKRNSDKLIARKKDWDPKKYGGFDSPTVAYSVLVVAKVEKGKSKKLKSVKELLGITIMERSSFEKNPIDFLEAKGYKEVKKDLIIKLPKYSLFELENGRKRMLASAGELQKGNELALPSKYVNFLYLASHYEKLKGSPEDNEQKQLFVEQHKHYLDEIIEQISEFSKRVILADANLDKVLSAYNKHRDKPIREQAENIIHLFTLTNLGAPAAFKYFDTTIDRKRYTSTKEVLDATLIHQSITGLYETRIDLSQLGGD
T2 sequence (Q99ZW2 whole entry): as the sequence (Q99ZW2 whole entry, one chain of several) above

In the case of `CC1(C)CC(=NNc2ccc([N+](=O)[O-])cc2[N+](=O)[O-])CC(C)(C)N1C(=O)COCC(=O)N1C(C)(C)CC(=NNc2ccc([N+](=O)[O-])cc2[N+](=O)[O-])CC1(C)C` [SP2], the “inhibition of LbCas12a-mediated cleavage” value (LbCas12a) is reported as “no inhibition”, the “change of FP signals of SpCas9-gRNA and DNA” value (SpCas9–gRNA complex [1]; 50 μM) is reported as under 5% and the “Fluorescence Polarization (mP)” value (SpCas9–gRNA complex [1]; SpCas9+gRNA 50 nM, FITC-DNA 25 nM, compounds 50 μM, PAM-DNA 1.25 μM) is reported as 160.5 mP. For the same compound, the “Fluorescence Polarization (mP)” value (dSpCas9–gRNA complex) was 209.5 mP, the EC50 (SpCas9–gRNA complex [2]) was 5.63 ± 3.65 µM and the “effect on SpCas9 expression” value [3] was “Neither compound appeared to affect SpCas9 expression”. The “effect on fluorescence polarization value of fluorescence-labeled DNA” value (FITC-DNA) was “did not affect”, the “reduction of SpCas9 off-target editing, EMX1-2” value (SpCas9 [4]; 2.5 μM) was 63.3% and the “Indel (%) EMX1-1 Off-target” value (SpCas9 [4]; 24 h, SP2 2.5 μM, SP24 0.5 μM) was 21.7%. The “Indel (%) EMX1-1 On-target” value (SpCas9 [4]; 24 h, SP2 2.5 μM, SP24 0.5 μM) was 42.2%, the “Indel (%) EMX1-2 Off-target” value (SpCas9 [4]; 24 h, SP2 2.5 μM, SP24 0.5 μM) was 1.1% and the “Indel (%) EMX1-2 On-target” value (SpCas9 [4]; 24 h, SP2 2.5 μM, SP24 0.5 μM) was ~ 18% and 17.8%. The “Indel (%) ZSCAN2 Off-target” value (SpCas9 [4]; 24 h, SP2 2.5 μM, SP24 0.5 μM) was 6.7%, the “Indel (%) ZSCAN2 On-target” value (SpCas9 [4]; 24 h, SP2 2.5 μM, SP24 0.5 μM) was 32.2% and the “ratio of on-target vs. off-target indels, EMX1-1” value (SpCas9 [4]; 24 h, SP2 2.5 μM, SP24 0.5 μM) was 1.94 x. The “ratio of on-target vs. off-target indels, EMX1-2” value (SpCas9 [4]; 24 h, SP2 2.5 μM, SP24 0.5 μM) was 16.18 x, the “ratio of on-target vs. off-target indels, ZSCAN2” value (SpCas9 [4]; 24 h, SP2 2.5 μM, SP24 0.5 μM) was 4.81 x and the “Indel (%) VEGFA-3 Off-target” value (SpCas9 [4]; 24 h, SP2 2.5 μM, SP24 1 μM) was 1.4%. The “Indel (%) VEGFA-3 On-target” value (SpCas9 [4]; 24 h, SP2 2.5 μM, SP24 1 μM) was 35.2%, the “ratio of on-target vs. off-target indels, VEGFA-3” value (SpCas9 [4]; 24 h, SP2 2.5 μM, SP24 1 μM) was 25.14 x and the EC50 (SpCas9 [5]) was 44.2 ± 35.4 µM. The “SpCas9 inhibition in reporter cells” value (SpCas9 [6]; 10 μM, Dox 2 μg/mL, 72 h) was 50%, the “inhibitory activity in reporter cells (in words)” value (SpCas9 [6]; from 40 to 2 μM) was “changed little” and the EC50 (SpCas9 [6]; titration, Dox 2 μg/mL, 72 h, flow cytometry) was 5.07 µM.

— publication PMC9688475, “Identification and Analysis of Small Molecule Inhibitors of CRISPR-Cas9 in Human Cells” (Cells, 2022)
